Source: a melting point compilation (Tetko et al.; mined from patent text by program, amines drawn as free bases though some values may be those of a salt)

Molecule Cc1cccc(-c2n[nH]cc2-c2ccc(F)c(-c3c[nH]c(C(O)CO)n3)c2)n1 (stereo not given) has a melting point of 125 to 127 °C. Molecule COc1ccc(Cl)c2c1CN(Nc1ccncc1)C2 has a melting point of 229 to 230 °C. With CCCCCCOC(=O)C1=C(C)NN=C(CC)C1c1cccc([N+](=O)[O-])c1 (stereo not given) the melting point was 92 °C. CCCCCCCc1ccc(CCCCCCC)c(C#N)c1C#N showed a melting point of 4.6 °C. Cc1cc2c(s1)Nc1ccccc1NC2=S gave a melting point of 259 to 260 °C. In the case of CC(C)(O)C[C@@H]1CO[C@](C)([C@H]2CC[C@H]3C(=O)CCC[C@@]32C)C1, the melting point is reported as 82 °C. Work on Cc1nn(CC(=O)c2ccc(Cl)cc2)c(=O)n1-c1ccc(N2CCN(c3ccc(O)cc3)CC2)cc1 yielded a melting point of 252 °C. For S=c1[nH]nc(-c2ccc3ccccc3c2)s1, the melting point was 254 to 256 °C. In the case of CN(C)c1ccc(C(c2ccc(N(C)C)cc2)c2ccc(N(C)C)cc2C(=O)O)cc1, the melting point is reported as 210 to 212 °C. Cc1nn(-c2c(Cl)cc(C(F)(F)F)cc2Cl)nc1CBr gave a melting point of 98 to 100 °C. For O=C(Nc1nc2c(s1)CC(N1CCN(c3ccccn3)CC1)CC2)c1ccccc1 (stereo not given), the melting point was 230 to 232 °C. Nc1ncccc1-c1nc2cc(Br)cnc2n1-c1ccc(NC(=O)c2ccccc2)cc1 showed a melting point of 242 to 244 °C. COC(=O)c1cc(C)cc(C#N)c1 gave a melting point of 68 to 69 °C. In the case of Cc1cc(OC(F)(F)C(F)Cl)nc(N)n1 (stereo not given), the melting point is reported as 73 to 74 °C. For CCC(O)(c1ccc(O)cc1)c1ccc(F)cc1 (stereo not given), the melting point was 125 to 126 °C. Work on CCCCCCCCCC(=O)NC(=O)OCc1nc(C(C)C)c(Sc2cc(Cl)cc(Cl)c2)n1CC yielded a melting point of 102 to 103 °C. For CON=C1CCC(C)(C)c2cc(C)c(-c3cc(C=C4SC(=O)NC4=O)ccc3N(C)C)cc21, the melting point was 254 to 256 °C. With Cc1ccnc2c([N+](=O)[O-])cc(Cc3cnc(N)nc3N)cc12 the melting point was 256 to 258 °C. In the case of Oc1ccc2ccc(OCc3ccccn3)cc2c1, the melting point is reported as 190 to 193 °C. Molecule CCCCc1cn(CC(C)(C)C)c(=O)n1Cc1ccc(-c2ccccc2-c2nnn[nH]2)nc1 has a melting point of 194 to 195 °C. With CCNC(=O)Nc1ncc(-c2ccncc2)cn1 the melting point was 241 to 246 °C. For COC(=O)c1nn(Cc2cccc(O)c2)c2c1CCc1cc(OCc3cncnc3)ccc1-2, the melting point was 218 to 222 °C. COC(=O)C1=C(CF)NC(C)=C(C(=O)OC2CCCC2)C1c1cccc([N+](=O)[O-])c1C (stereo not given) gave a melting point of 167 to 168 °C. With Nc1cccc(CNC(=O)C2Cc3ccccc3N2S(=O)(=O)c2ccc(-c3cccc(C(F)(F)F)c3)cc2)c1 (stereo not given) the melting point was 82 °C. For O=c1ccc2nc3ccc(F)cc3sc-2c1Cl, the melting point was 250 to 255 °C. Cc1ccc2c(=O)c(-c3nnnn3C)cn(C)c2c1 showed a melting point of 254 to 255 °C. For CCOc1cc(OC2CCN(C)CC2)c(F)c([C@H](Nc2ccc(C(=N)N)cc2)C(=O)O)c1, the melting point was 267 °C. With CN(CCO)Cc1cc(C(=O)c2ccccc2F)cc(C(C)(C)C)c1O the melting point was 87 to 89 °C. For CCOC(=O)C1=C(C)NC(c2cscn2)=NC1c1ccc(O)cc1 (stereo not given), the melting point was 213 to 216 °C. For COc1ccc2c(c1)CCc1ccccc1C2=O, the melting point was 72 to 73 °C. Cn1nc(-c2cccnc2)c(C=Cc2ccccc2C(=O)O)c1Cl showed a melting point of 183 to 185 °C. For Cc1[nH]c(=O)[nH]c1C(=O)c1ccccc1, the melting point was 250 to 254 °C. Molecule CC(C)(C(=O)OCc1ccccc1)N1COC(CO)=C(c2ccccc2)C1=O has a melting point of 115 to 116 °C. With Cc1cc(F)ccc1-c1nc(OCCCS(C)(=O)=O)nc2c1ccc(=O)n2-c1c(F)cccc1F the melting point was 160 to 162 °C. Work on CS(=O)(=O)c1ccc(C(=O)N[C@H]2CC[C@H](CCN3CCN(c4nccc5c4OCC5)CC3)CC2)s1 yielded a melting point of 212 °C. With O=[N+]([O-])c1cc2c(cc1Sc1ccccn1)CCC2 the melting point was 74 °C. CN1CC(CCN2CCN(c3cccc(F)c3)CC2)OC1=O (stereo not given) gave a melting point of 92 to 93 °C. With Cc1ccccc1S(=O)(=O)NC1CCc2sccc2C1 (stereo not given) the melting point was 130 to 132 °C. For Oc1ccccc1C=Nc1cccc(Cl)c1Cl, the melting point was 89 to 90 °C. COC(=O)CCc1conc1-c1ccc(F)c(Br)c1 gave a melting point of 57 to 58 °C. In the case of Cc1cc2c(-c3ccccc3)c(C(=O)O)oc(=O)c2cc1C, the melting point is reported as 265 to 268 °C. COC(=O)c1ccc2c(=O)[nH]c(=O)n(CCCCN3CCC(OC(c4ccccc4)c4ccccc4)CC3)c2c1 gave a melting point of 192 to 194 °C. With O=C1NCCc2[nH]c3c(F)ccc(F)c3c21 the melting point was 221 to 223 °C. Molecule COC(=O)Cc1ccc(S(C)(=O)=O)c(Cl)c1 has a melting point of 54 to 57 °C. For c1ccc(C2=NN=C(N3CCSCC3)SC2)cc1, the melting point was 160 °C. Molecule CN(C)C(=O)CCC12CC(c3ccccc31)c1ccccc12 has a melting point of 186 to 187 °C. For O=C1CC(Nc2ccccc2)C(=O)N1c1ccccc1 (stereo not given), the melting point was 211 to 214 °C. CCCCOC(=O)C(=O)c1cc(-c2ccc(S(C)(=O)=O)cc2)n(-c2ccccc2)c1C gave a melting point of 100 °C. Work on COc1ccc2c(c1)C(C(=O)N(Cc1ccc(-n3ccnc3)cc1)c1ccc(C(C)C)cc1)CCC2 (stereo not given) yielded a melting point of 111 °C. CCOC(=O)c1nc(-c2cccc(F)c2)c(-c2ccc(=O)n(C(C)C)n2)s1 showed a melting point of 154 to 155 °C. COc1cc(OC)c2c(C)c(C(C)=O)c(=O)oc2c1 gave a melting point of 166 to 167 °C. COc1cc(N)c(Cl)cc1C(=O)NC[C@H]1CCN(CCCCCC(=O)c2ccccc2)C[C@H]1OC (relative stereo) gave a melting point of 99 to 101 °C. Cc1cccc(-c2nc3ccc(OCCN(C)C)cc3n2Cc2ccccc2C(F)(F)F)c1 showed a melting point of 93 °C. COC(=O)CCCC#Cc1cc(Cl)ccc1NS(=O)(=O)c1ccc2nc(N)sc2c1 gave a melting point of 61 to 65 °C. Cc1nn2c(-c3cccnc3)ccnc2c1C#N gave a melting point of 245 to 246 °C. CCOc1cc(OCC)cc(-c2c(Cl)ncn2-c2ccc(S(C)(=O)=O)cc2)c1 showed a melting point of 227 to 231 °C. Work on COc1ccccc1N1CCN(CCCCc2c[nH]c3ccccc23)CC1 yielded a melting point of 113 to 115 °C. COc1ccccc1OCC(O)CCCl (stereo not given) gave a melting point of 48 to 50 °C. With CN1CNC(=S)N(c2ccc(C(F)(F)F)cc2)C1 the melting point was 163 to 165 °C. CCCCc1oc2ccccc2c1C(=O)NCc1ccc2c(-c3ccc(C(C)(C)C)cc3)c(OCC#N)ccc2c1 gave a melting point of 162 to 164 °C. For CCOC(=O)c1ccn2ncc(-c3cccc(Cl)c3)c2n1, the melting point was 126 to 129 °C. For CCCCCCCCNC(=N)NC#N, the melting point was 69 to 74 °C. With O=S(=O)(c1ccc(Cl)cc1)N1CCCC1c1ccc(C(F)(F)F)cc1 (racemic) the melting point was 107 °C. In the case of CC(C)(C)c1cc(C(=O)c2ccc(O)cc2)cc(C(C)(C)C)c1O, the melting point is reported as 188 to 190 °C. For CC(C)(C)OC(=O)NCCNc1nnc(N)s1, the melting point was 219 to 220 °C. CCOC(=O)C1CN(C(=O)c2cc(OC)c(OC)c(OC)c2)CCN1C(=O)c1cc(OC)c(OC)c(OC)c1 (stereo not given) showed a melting point of 130 °C. Molecule CCCCn1nc(C(N)=O)cc1CC has a melting point of 60 to 61 °C. O=C(NCCCc1ccncc1)N(CC=Cc1ccccc1)CCC12CC3CC(CC(C3)C1)C2 gave a melting point of 130 to 134 °C. C/C(=N/O)[C@@H]1C[C@H](C(=O)OC(C)(C)C)N(C(=O)CNC(=O)Nc2cccc(C)c2)[C@@H]1c1ccccc1 (racemic) gave a melting point of 166 °C. In the case of CNC(=O)c1cc(-c2ccc(OC)cc2)nn(C(C)C)c1=O, the melting point is reported as 154 °C. Molecule CCOC(=O)c1cc([N+](=O)[O-])cc(Br)c1O has a melting point of 108 °C. For O=C1CCCc2c1ccn2S(=O)(=O)c1ccccc1, the melting point was 108 to 110 °C. Cc1c(C)c2c(c(C)c1O)CC(C)C(C(=S)Nc1ccccc1)O2 (stereo not given) showed a melting point of 175 °C. CC(C)(C)OC(=O)N1CCN(CC(=O)N2CCC3(CC2)Cn2cc([N+](=O)[O-])nc2O3)CC1 gave a melting point of 211 to 213 °C. In the case of CC(Oc1ccc2nc(-c3ccccc3OC(N)=O)sc2c1)c1c(F)ccc(Cl)c1Cl (stereo not given), the melting point is reported as 210 to 220 °C. Work on O=C1ON(c2ccccc2Cl)C(c2ccccc2)C1c1ccccc1 (stereo not given) yielded a melting point of 178 to 180 °C. Molecule CC(=O)N(O)Cc1cccc([N+](=O)[O-])c1 has a melting point of 80 °C. For COc1cc(C(C)=O)ccc1OCCCN1CCN(c2n[nH]c3ccccc23)CC1, the melting point was 155 to 157 °C. For OCc1ccc(CCc2ccncc2)cc1, the melting point was 163 to 166 °C. With CC(=O)Nc1ccc(S(=O)c2ccc(Br)cc2)cc1 (stereo not given) the melting point was 190 to 191 °C. Molecule CCOC(=O)C1=C(c2ccc(-n3c(C)nc4cnccc43)nc2)NC(C)=C(C(=O)Nc2ccccn2)C1c1ccccc1Cl (stereo not given) has a melting point of 242 to 243 °C. COc1nc(C)cc(C(=O)O)n1 gave a melting point of 161 to 163 °C. For CCSc1cnn(-c2cc(-c3ccnc(Nc4cccc(Cl)c4)n3)ccn2)c(=O)c1Cl, the melting point was 80 to 100 °C. With c1coc(-c2cnc3[nH]c4ccccc4c3c2)c1 the melting point was > 220 °C. Work on N#Cc1c(N2CCN(C(=O)c3cccs3)CC2)c2cccnc2n(CC(=O)c2ccccc2)c1=O yielded a melting point of 269 °C. For Cn1c(C#N)cc(Br)c1Br, the melting point was 104 to 105 °C. For Cc1cccc(C)c1-n1c(C)nnc1S, the melting point was 189 to 192 °C. Molecule Clc1ccc2c(-n3cc(Cl)cn3)ccnc2c1 has a melting point of 110 to 114 °C. Work on Cc1c(N2CC[C@@H](C3(NCCO)CC3)C2)c(F)cc2c(=O)c(C(=O)O)cn([C@@H]3C[C@@H]3F)c12 yielded a melting point of 168 to 170 °C. Molecule O=c1c2cc(F)c(N3CCCC3)cc2n(-c2ccc(F)cc2F)c(=O)n1OCc1ccccc1 has a melting point of 212 to 214 °C. Cc1ccc(-c2[nH]nc3c2Cc2ccccc2-3)cc1 gave a melting point of 250 to 252 °C. With Cc1cc(Cl)ccc1-c1nc(=O)c2ccccc2s1 the melting point was 134 °C. Work on Cc1cccc(NC(=O)NC2N=C(C3CCCC3)c3ccccc3N(CC(=O)N3CC4CCC(CC4)C3)C2=O)c1 (racemic) yielded a melting point of 132 to 134 °C. With Oc1c2c(nn1-c1ccccn1)CCc1ccccc1-2 the melting point was 145 to 146 °C. N#CC(=C1CCCN1)c1ccc(Cl)cc1 gave a melting point of 135 to 137 °C. Molecule COC(=O)c1ccc(C(=O)Nc2cc3c4c(c2)CCCC4(C)CCC3)s1 has a melting point of 212 °C. Work on COc1ccc(C(=O)Nc2ccc(C(=O)Cl)c3ccccc23)cc1OC yielded a melting point of 167 to 171 °C. Molecule CC(=O)NC[C@H]1CN(c2ccc(C3=CN(C(=O)CO)CCC3)c(F)c2)C(=O)O1 has a melting point of 171 to 173 °C. Work on CC(=O)ON=C(O)c1cc(C(O)=NCCO)c(C(=O)O)cc1C(=O)O yielded a melting point of 194 to 195 °C. With COc1ccc(COC(=O)c2ccccc2)cc1OCc1ccccc1 the melting point was 75.7 °C.
